Measured values from ChEMBL document CHEMBL1201862, “PubChem BioAssay data set” (2004).
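Cultured in 96-well plates, cells were exposed to test compound for 48 hours across five concentrations. GI50 is the concentration that inhibits growth by half.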 The source made the active and inactive calls. Cut-off read from the data, not from the text of the source: active = GI50 up to about 1.1 µM and inactive = higher.

Experiments:
Assay in all cases: NCI-60 cell line screen, 48 h
UACC-257 = test system: UACC-257
SNB-19 = test system: SNB-19
UO-31 = test system: UO-31
SK-OV-3 = test system: SK-OV-3
K562 = test system: K562
MDA-N = test system: MDA-N
OVCAR-3 = test system: OVCAR-3
EKVX = test system: EKVX
U-251 = test system: U-251
SW-620 = test system: SW-620
SF-539 = test system: SF-539
NCI/ADR-RES = test system: NCI/ADR-RES
RXF 393 = test system: RXF 393
MDA-MB-435 = test system: MDA-MB-435
HCC 2998 = test system: HCC 2998
HOP-92 = test system: HOP-92
MDA-MB-231 = test system: MDA-MB-231
SNB-75 = test system: SNB-75
OVCAR-5 = test system: OVCAR-5

Compound	GI50 (UACC-257)	GI50 (SNB-19)	GI50 (UO-31)	GI50 (SK-OV-3)	GI50 (K562)	GI50 (MDA-N)	GI50 (OVCAR-3)	GI50 (EKVX)	GI50 (U-251)	GI50 (SW-620)	GI50 (SF-539)	GI50 (NCI/ADR-RES)	GI50 (RXF 393)	GI50 (MDA-MB-435)	GI50 (HCC 2998)	GI50 (HOP-92)	GI50 (MDA-MB-231)	GI50 (SNB-75)	GI50 (OVCAR-5)
Brc1ccccc2cc(-c3ccccc3)nc1-2	5.06 µM (inactive)	13.6 µM (inactive)	5.37 µM (inactive)	8.69 µM (inactive)	2.7 µM (inactive)	14.7 µM (inactive)	2.16 µM (inactive)	11.5 µM (inactive)	7.87 µM (inactive)	2.07 µM (inactive)	4.8 µM (inactive)	3.58 µM (inactive)	2.09 µM (inactive)	9.95 µM (inactive)	1.93 µM (inactive)	3.32 µM (inactive)	2.6 µM (inactive)	11.6 µM (inactive)	7.43 µM (inactive)
CCO/C=N/C1=C(C#N)SC2=N/C(=C\c3ccccc3)C(=O)N21	> 100 µM (inactive)	> 100 µM (inactive)	> 100 µM (inactive)	> 100 µM (inactive)	41.9 µM (inactive)	> 100 µM (inactive)	> 100 µM (inactive)	77.3 µM (inactive)	> 100 µM (inactive)	> 100 µM (inactive)	> 100 µM (inactive)	> 100 µM (inactive)	> 100 µM (inactive)	> 100 µM (inactive)	> 100 µM (inactive)	> 100 µM (inactive)	> 100 µM (inactive)	> 81.3 µM (inactive)	> 100 µM (inactive)
O=C(O)c1ccc(C(=O)O)c(C(=O)Nc2ccc3c(c2)C(=O)c2ccccc2-3)c1	> 100 µM (inactive)	> 100 µM (inactive)	> 100 µM (inactive)	> 100 µM (inactive)	> 100 µM (inactive)	> 100 µM (inactive)	> 100 µM (inactive)	> 100 µM (inactive)	> 100 µM (inactive)	> 100 µM (inactive)	> 100 µM (inactive)	> 100 µM (inactive)	> 100 µM (inactive)	> 100 µM (inactive)	> 100 µM (inactive)	> 100 µM (inactive)	> 100 µM (inactive)	> 100 µM (inactive)	> 100 µM (inactive)
CC(C)(C)OC(=O)CC(NC(=O)OC(C)(C)C)C(=O)N[C@@H]1CCCC[C@H]1C(=O)OCc1ccccc1 (stereo partly specified)	30.2 µM (inactive)	33.3 µM (inactive)	24.2 µM (inactive)	19.2 µM (inactive)	18.4 µM (inactive)	32.1 µM (inactive)	28.9 µM (inactive)	62.2 µM (inactive)	19.5 µM (inactive)	37.5 µM (inactive)	24.5 µM (inactive)	33.3 µM (inactive)	> 100 µM (inactive)	29.6 µM (inactive)	20.6 µM (inactive)	53.2 µM (inactive)	32.5 µM (inactive)	23.1 µM (inactive)	26.2 µM (inactive)
c1cc2c(cc1[C@@H]1OC[C@@H]3[C@H]1CO[C@H]3c1ccc3c(c1)OCO3)OCO2	13.7 µM (inactive)	> 100 µM (inactive)	65.8 µM (inactive)	> 100 µM (inactive)	46.8 µM (inactive)	80.9 µM (inactive)	43.5 µM (inactive)	29.7 µM (inactive)	60.4 µM (inactive)	58.3 µM (inactive)	> 100 µM (inactive)	36.6 µM (inactive)	20.8 µM (inactive)	54.2 µM (inactive)	> 100 µM (inactive)	69.3 µM (inactive)	94 µM (inactive)	> 100 µM (inactive)	> 100 µM (inactive)
CC(C)[Si](OC1=C(C(=O)Nc2ccccc2Cl)CCCCC1)(C(C)C)C(C)C	> 100 µM (inactive)	> 100 µM (inactive)	> 100 µM (inactive)	> 100 µM (inactive)	> 100 µM (inactive)	> 100 µM (inactive)	> 100 µM (inactive)	> 100 µM (inactive)	> 100 µM (inactive)	> 100 µM (inactive)	> 100 µM (inactive)	> 100 µM (inactive)	> 100 µM (inactive)	> 100 µM (inactive)	> 100 µM (inactive)	> 100 µM (inactive)	> 100 µM (inactive)	> 78.2 µM (inactive)	97.9 µM (inactive)
O=C(CSc1ncccn1)N/N=C/c1ccccc1OCc1ccccc1	21 µM (inactive)	45.3 µM (inactive)	44.5 µM (inactive)	37.6 µM (inactive)	20.1 µM (inactive)	10.8 µM (inactive)	16.4 µM (inactive)	27.9 µM (inactive)	26.8 µM (inactive)	29.6 µM (inactive)	20.8 µM (inactive)	25.9 µM (inactive)	21.9 µM (inactive)	4.33 µM (inactive)	27.8 µM (inactive)	16.9 µM (inactive)	30.9 µM (inactive)	21.5 µM (inactive)	> 100 µM (inactive)
Clc1ccc(Nc2nnc(CNc3ccc(-c4nnc(Nc5ccc(Cl)cc5)o4)cc3)o2)cc1	20.3 µM (inactive)	18.7 µM (inactive)	14.5 µM (inactive)	22.6 µM (inactive)	0.504 µM (active)	14.3 µM (inactive)	11.2 µM (inactive)	22.3 µM (inactive)	8.71 µM (inactive)	20.9 µM (inactive)	18.6 µM (inactive)	29.7 µM (inactive)	18.5 µM (inactive)	12.9 µM (inactive)	5.14 µM (inactive)	23.9 µM (inactive)	7.93 µM (inactive)	24.8 µM (inactive)	19.6 µM (inactive)
O=[N+]([O-])c1ccc(-[n+]2ccc3ccccc3c2)c([N+](=O)[O-])c1	1.81 µM (inactive)	18.1 µM (inactive)	5.02 µM (inactive)	14.1 µM (inactive)	1.55 µM (inactive)	2.33 µM (inactive)	2.55 µM (inactive)	6.73 µM (inactive)	5.68 µM (inactive)	1.95 µM (inactive)	5.21 µM (inactive)	3.28 µM (inactive)	1.92 µM (inactive)	2.5 µM (inactive)	13.7 µM (inactive)	2.48 µM (inactive)	3.62 µM (inactive)	3.14 µM (inactive)	11.7 µM (inactive)
O=C(O)CC1OCC=C2CN3CCC45C6=CC(=O)C(O)=C([N+](=O)[O-])C6=NC4C1C2CC35 (stereo unspecified)	> 100 µM (inactive)	> 100 µM (inactive)	> 100 µM (inactive)	> 100 µM (inactive)	92.3 µM (inactive)	44.7 µM (inactive)	> 100 µM (inactive)	> 100 µM (inactive)	> 100 µM (inactive)	47 µM (inactive)	> 100 µM (inactive)	> 100 µM (inactive)	> 100 µM (inactive)	17.2 µM (inactive)	> 100 µM (inactive)	> 100 µM (inactive)	> 100 µM (inactive)	> 100 µM (inactive)	> 100 µM (inactive)
CC1(C)O[C@@H]2C[C@H]3[C@@H]4C[C@H](F)C5=CC(=O)C=C[C@]5(C)[C@@]4(F)[C@@H](O)C[C@]3(C)[C@]2(C(=O)CO)O1 [FLUOCINOLONE ACETONIDE]	> 89.3 µM (inactive)	> 100 µM (inactive)	> 87.5 µM (inactive)	> 72.3 µM (inactive)	> 100 µM (inactive)	> 100 µM (inactive)	> 100 µM (inactive)	> 100 µM (inactive)	> 100 µM (inactive)	> 100 µM (inactive)	> 100 µM (inactive)	> 100 µM (inactive)	> 100 µM (inactive)	> 100 µM (inactive)	> 100 µM (inactive)	> 100 µM (inactive)	> 100 µM (inactive)	> 100 µM (inactive)	> 100 µM (inactive)
CC(NC(=O)c1ccc(Cl)c(Cl)c1)c1ccc(-c2ccccc2)cc1 (stereo unspecified)	76.2 µM (inactive)	21.1 µM (inactive)	14.2 µM (inactive)	27.5 µM (inactive)	> 100 µM (inactive)	> 100 µM (inactive)	20.8 µM (inactive)	35 µM (inactive)	31.7 µM (inactive)	79.4 µM (inactive)	19.3 µM (inactive)	54.8 µM (inactive)	12.1 µM (inactive)	69.5 µM (inactive)	43.1 µM (inactive)	25.5 µM (inactive)	42.7 µM (inactive)	15.8 µM (inactive)	44.9 µM (inactive)
Cc1ccnc2nc(-c3cccc4ccccc34)cc(O)c12	23.1 µM (inactive)	0.0147 µM (active)	0.0188 µM (active)	0.00471 µM (active)	0.000483 µM (active)	0.000104 µM (active)	0.00258 µM (active)	0.0272 µM (active)	0.00445 µM (active)	0.00379 µM (active)	0.0112 µM (active)	0.00237 µM (active)	0.0879 µM (active)	0.0001 µM (active)	0.0573 µM (active)	0.00123 µM (active)	0.149 µM (active)	0.00255 µM (active)	0.0516 µM (active)
c1ccc(C2SCc3nc4cc5ccccc5cc4n32)cc1 (stereo unspecified)	> 100 µM (inactive)	> 100 µM (inactive)	> 100 µM (inactive)	> 100 µM (inactive)	> 100 µM (inactive)	> 100 µM (inactive)	> 100 µM (inactive)	> 100 µM (inactive)	> 100 µM (inactive)	> 100 µM (inactive)	> 100 µM (inactive)	> 100 µM (inactive)	> 100 µM (inactive)	> 100 µM (inactive)	> 100 µM (inactive)	57.3 µM (inactive)	> 100 µM (inactive)	70.1 µM (inactive)	> 100 µM (inactive)
